In the assay the test system is IL-1β production in THP-1 cells (LPS and ATP; NLRP3 inflammasome activation). Nature of the assay: THP-1 IL-1β production inhibitory test. Type of assay: cell-based, human. As to conditions: read-out: IC50 (nM), IL-1β production. How it is done: THP-1 IL-1β Production Inhibitory Test
To THP-1 cells, 50 ng/mL PMA (phorbol myristate acetate, SIGMA, P1585) was added at 37° C. and then the cells were cultured for 2 days. […] The cells were cultured at 37° C. for 15 minutes. LPS (lipopolysaccharide, SIMGA, L2880) and ATP (adenosine triphosphate, SIGMA, A2383) were added such that the final concentrations of them became 50 ng/mL and 5 mM, respectively. The cells were cultured at 37° C. for 2 hours. The supernatant was collected and the concentration of IL-1β was measured by ELISA (DuoSet ELISA human IL-1β, R&D Systems, DY201). The concentration of IL-1β was plotted against the logarithm of the concentration of the test compound, and the IC50 value was calculated by sigmoidal Emax model nonlinear regression analysis.

Where [1] appears, read: Homo sapiens, THP-1, 2 h, PMA-differentiated THP-1 cells, LPS 50 ng/mL and ATP 5 mM, 2 hours, ELISA.

Structures can show the parent of a compound that is named as a salt. Where two headings read alike, the source gives them in different places.

Results on 47 compounds are retold here after patent US12692241B2, “Substituted triazine compound” (Nico Therapeutics, Inc., priority 2021, dated 2026).

By IC50 is commonly meant the point on the concentration scale where inhibition reaches its midpoint.

For the compound `Cc1nc(NCCC2(CN)CCC2)nnc1-c1ccc(C(F)(F)F)cc1O` [Example 139], under setting [1], the IC50 worked out at 690 nM.
For the compound `Cc1n[nH]cc1Nc1nnc(-c2ccc(C(F)(F)F)cc2O)c(C)n1` [Example 140], the IC50 under setting [1] came out at 160 nM.
Turning to `Cc1nc(NC[C@H]2COCCN2)nnc1-c1ccc(C(F)(F)F)cc1O` [Example 142], the IC50 under setting [1] was 340 nM.
`Cc1nc(NC[C@H]2C[C@H](N)C2)nnc1-c1ccc(C(F)(F)F)cc1O` [Example 143]: the IC50 under setting [1] was 220 nM.
On the same count and under the same terms, with `Cc1nc(NC[C@H]2C[C@@H](N)C2)nnc1-c1ccc(C(F)(F)F)cc1O` [Example 144] the figure was 160 nM.
As for `Cc1nc(N[C@@H]2CCCC[C@H]2N)nnc1-c1ccc(OC(F)(F)F)cc1O` [Example 145], the IC50 under setting [1] was 39 nM.
Regarding `Cc1nc(N[C@@H]2CCCC[C@H]2N)nnc1-c1ccc(Cl)cc1O` [Example 146], the IC50 under setting [1] was 12 nM.
On the same count and under the same terms, then `Cc1ccc(-c2nnc(N[C@@H]3CCCC[C@H]3N)nc2C)c(O)c1` [Example 147], with 28 nM.
Turning to `Cc1nc(NC[C@@H](C)N)nnc1-c1ccc(C(F)(F)F)cc1O` [Example 148, 2-(3-{[(2R)-2-aminopropyl]amino}-5-methyl-1,2,4-triazin-6-yl)-5-(trifluoromethyl)phenol monohydrochloride], where the note is “Homo sapiens, THP-1, 2 h”, the IC50 stood at 150 nM.
As for `Cc1nc(Nc2cn[nH]c2)nnc1-c1ccc(C(F)(F)F)cc1O` [Example 149, 2-{5-methyl-3-[(1H-pyrazol-4-yl)amino]-1,2,4-triazin-6-yl}-5-(trifluoromethyl)phenol], the IC50 under setting [1] was determined as 23 nM.
For `Cc1nc(Nc2cc[nH]n2)nnc1-c1ccc(C(F)(F)F)cc1O` [Example 150], the IC50 under setting [1] came out at 6.8 nM.
Regarding `CC(=O)N1CCC[C@H]1CNc1nnc(-c2ccc(C(F)(F)F)cc2O)c(C)n1` [Example 151, 1-((2S)-2-[({6-[2-hydroxy-4-(trifluoromethyl)phenyl]-5-methyl-1,2,4-triazin-3-yl}amino)methyl]pyrrolidin-1-yl)ethan-1-one], the IC50 under setting [1] came out at 35 nM.
The same measure, in the same setting: then `CC(=O)N[C@@H]1CCCC[C@H]1Nc1nnc(-c2ccc(C(F)(F)F)cc2O)c(C)n1` [Example 152, N-[(1R,2R)-2-({6-[2-hydroxy-4-(trifluoromethyl)phenyl]-5-methyl-1,2,4-triazin-3-yl}amino)cyclohexyl]acetamide], with 22 nM; and `CC(=O)N1CCC[C@@H](CNc2nnc(-c3ccc(C(F)(F)F)cc3O)c(C)n2)C1` [Example 153], with 7.8 nM.
Take `CC(=O)N1CCC[C@@H](Nc2nnc(-c3ccc(C(F)(F)F)cc3O)c(C)n2)C1` [Example 154]: the IC50 under setting [1] worked out at 31 nM.
With `CC(=O)N1CCO[C@@H](CNc2nnc(-c3ccc(C(F)(F)F)cc3O)c(C)n2)C1` [Example 155], under setting [1], the IC50 was 370 nM.
Same read-out and setting: then `CC(=O)N[C@H]1C[C@H](CNc2nnc(-c3ccc(C(F)(F)F)cc3O)c(C)n2)C1` [Example 156], with 23 nM; and `CC(=O)N[C@H]1C[C@@H](CNc2nnc(-c3ccc(C(F)(F)F)cc3O)c(C)n2)C1` [Example 157], with 5.7 nM.
The same measure, in the same setting: then `CC(=O)N1CCOC[C@@H]1CNc1nnc(-c2ccc(C(F)(F)F)cc2O)c(C)n1` [Example 158], with 850 nM; and `CC(=O)N1CC[C@@H](Nc2nnc(-c3ccc(C(F)(F)F)cc3O)c(C)n2)[C@H](O)C1` [Example 159, 1-[(3R,4R)-3-hydroxy-4-({6-[2-hydroxy-4-(trifluoromethyl)phenyl]-5-methyl-1,2,4-triazin-3-yl}amino)piperidin-1-yl]ethan-1-one], with 120 nM.
For `Cc1nc(N[C@@H]2CN(S(C)(=O)=O)C[C@H]2O)nnc1-c1ccc(C(F)(F)F)cc1O` [Example 160, (3R,4R)-4-({6-[2-hydroxy-4-(trifluoromethyl)phenyl]-5-methyl-1,2,4-triazin-3-yl}amino)-1-(methanesulfonyl)pyrrolidin-3-ol], the IC50 under setting [1] was 210 nM.
Regarding `Cc1nc(N[C@@H]2CCN(CCO)C2)nnc1-c1ccc(C(F)(F)F)cc1O` [Example 161, 2-(3-{[(3R)-1-(2-hydroxyethyl)pyrrolidin-3-yl]amino}-5-methyl-1,2,4-triazin-6-yl)-5-(trifluoromethyl)phenol], the IC50 under setting [1] worked out at 70 nM.
Turning to `Cc1nc(N[C@@H]2CN(C)C[C@H]2O)nnc1-c1ccc(C(F)(F)F)cc1O` [Example 162], under setting [1], the IC50 came to 350 nM.
In the case of `CC(=O)N1C[C@@H](O)[C@H](Nc2nnc(-c3ccc(C(F)(F)F)cc3O)c(C)n2)C1` [Example 163, 1-[(3R,4R)-3-hydroxy-4-({6-[2-hydroxy-4-(trifluoromethyl)phenyl]-5-methyl-1,2,4-triazin-3-yl}amino)pyrrolidin-1-yl]ethan-1-one], under setting [1], the IC50 turned out to be 640 nM.
For the compound `Cc1cc(C(F)(F)F)cc(O)c1-c1nnc(N[C@@H]2CCCC[C@H]2O)nc1C` [Example 165], the IC50 under setting [1] stood at 6.7 nM.
The same measure, in the same setting: then `Cc1nc(N[C@@H]2CCC[C@@H](O)C2)nnc1-c1ccc(C(F)(F)F)cc1O` [Example 166], with 23 nM.
Regarding `Cc1nc(N[C@H]2CCC[C@@H](O)C2)nnc1-c1ccc(C(F)(F)F)cc1O` [Example 167], the IC50 under setting [1] stood at 580 nM.
`COc1ccc(-c2nnc(N[C@@H]3CCC[C@H](O)C3)nc2C)c(O)c1` [Example 168]: under setting [1], the IC50 came to 26 nM.
Same read-out and setting: with `Cc1nc(N[C@@H]2CCCC[C@H]2O)nnc1-c1cc(F)c(C(F)(F)F)cc1O` [Example 169] the figure was 38 nM; with `Cc1nc(NC2CNCCC23CC3)nnc1-c1ccc(C(F)(F)F)cc1O` (centres unmarked) [Example 170], 390 nM; with `Cc1nc(NCC2(N)CCOCC2)nnc1-c1ccc(C(F)(F)F)cc1O` [Example 171], 240 nM.
The same measure, in the same setting: with `Cc1nc(N[C@@H]2CCCN(C3CNC3)C2)nnc1-c1ccc(C(F)(F)F)cc1O` [Example 172] the figure was 35 nM; with `Cc1nc(NC2CCC(C(N)=O)NC2)nnc1-c1ccc(C(F)(F)F)cc1O` (centres unmarked) [Example 173], 58 nM.
As for `Cc1nc(N[C@@H]2CCC[C@H](O)C2)nnc1-c1ccc(C(F)F)cc1O` [Example 175], under setting [1], the IC50 stood at 24 nM.
Still for that read-out and setting: with `Cc1nc(N[C@@H]2CCC[C@H](O)C2)nnc1-c1cc(F)c(C(F)(F)F)cc1O` [Example 176] the figure was 43 nM.
In the case of `Cc1nc(N[C@@H]2CCCC[C@H]2N(C)C)nnc1-c1ccc(C(F)(F)F)cc1O` [Example 177], the IC50 under setting [1] was 48 nM.
Still for that read-out and setting: with `Cc1nc(N[C@@H]2CCCN(CC3CC3)C2)nnc1-c1ccc(C(F)(F)F)cc1O` [Example 178] the figure was 4.2 nM; with `Cc1nc(N[C@@H]2CCCN(C3COC3)C2)nnc1-c1ccc(C(F)(F)F)cc1O` [Example 179], 19 nM.
Still for that read-out and setting: with `Cc1nc(N[C@H]2CN(C)CCC2(F)F)nnc1-c1ccc(C(F)(F)F)cc1O` [Example 180] the figure was 180 nM; with `Cc1nc(N[C@@H]2CCCN(CCC#N)C2)nnc1-c1ccc(C(F)(F)F)cc1O` [Example 181, 3-[(3R)-3-({6-[2-hydroxy-4-(trifluoromethyl)phenyl]-5-methyl-1,2,4-triazin-3-yl}amino)piperidin-1-yl]propanenitrile], 12 nM.
As to `Cc1nc(N[C@@H]2CC[C@H](C(=O)O)C2)nnc1-c1ccc(C(F)(F)F)cc1O` [Example 182, (1S,3R)-3-({6-[2-hydroxy-4-(trifluoromethyl)phenyl]-5-methyl-1,2,4-triazin-3-yl}amino)cyclopentane-1-carboxylic acid], the IC50 under setting [1] amounted to 67 nM.
Still for that read-out and setting: with `Cc1nc(N[C@@H]2CCCN(CC(=O)O)C2)nnc1-c1ccc(C(F)(F)F)cc1O` [Example 183] the figure was 150 nM.
Take `COc1ccc(-c2nnc(N[C@@H]3CCCC[C@H]3O)nc2C)c(O)c1` [Example 184, 2-(3-{[(1R,2R)-2-hydroxycyclohexyl]amino}-5-methyl-1,2,4-triazin-6-yl)-5-methoxyphenol monohydrochloride]: the IC50 (Homo sapiens, THP-1, 2 h) came out at 5.8 nM.
The same measure, in the same setting: then `Cc1nc(N[C@@H]2CCC[C@H](O)C2)nnc1-c1ccc(C(F)(F)F)cc1O` [Example 185, 2-(3-{[(1R,3S)-3-hydroxycyclohexyl]amino}-5-methyl-1,2,4-triazin-6-yl)-5-(trifluoromethyl)phenol monohydrochloride], with 5.2 nM; and `Cc1nc(N[C@@H]2CCCC[C@H]2O)nnc1-c1ccc(OC(F)F)cc1O` [Example 186, 5-(difluoromethoxy)-2-(3-{[(1R,2R)-2-hydroxycyclohexyl]amino}-5-methyl-1,2,4-triazin-6-yl)phenol monohydrochloride], with 11 nM.
With `Cc1nc(N[C@@H]2CCCN(C)C2)nnc1-c1ccc(C(F)(F)F)cc1O` [Example 187, 2-(5-methyl-3-{[(3R)-1-methylpiperidin-3-yl]amino}-1,2,4-triazin-6-yl)-5-(trifluoromethyl)phenol dihydrochloride], the IC50 under setting [1] is 1.3 nM.
With `Cc1nc(N[C@@H]2CCCC[C@H]2N)nnc1-c1ccc(C(F)(F)F)cc1O` [Example 188, 2-(3-{[(1R,2R)-2-aminocyclohexyl]amino}-5-methyl-1,2,4-triazin-6-yl)-5-(trifluoromethyl)phenol dihydrochloride], under “PMA-differentiated THP-1 cells, LPS 50 ng/mL and ATP 5 mM, 2 hours, ELISA, dihydrochloride”, the IC50 was 21 nM.
